In patent publication US20070249670A1, “Glycogen Phosphorylase Inhibitor Compounds and Pharmaceutical Compositions Thereof” (SMITHKLINE BEECHAM CORPORATION, priority 2004, published 2007):
pIC50: −log10 of the molar value.

Target: T1, human liver glycogen phosphorylase a (HLGPa) (Homo sapiens, UniProt P06737)
T1 construct: creating a full-length cDNA fused at the 5′ end to codons for methionine-glycine-alanine-histidine; 6xHis tag (leader Met-Gly-Ala-His6-Gly-Gly) (N); made in house; host or cells: E. coli (bacterial expression plasmid pTXK1007LTev)
T1 sequence (P06737 2-847 limits assumed): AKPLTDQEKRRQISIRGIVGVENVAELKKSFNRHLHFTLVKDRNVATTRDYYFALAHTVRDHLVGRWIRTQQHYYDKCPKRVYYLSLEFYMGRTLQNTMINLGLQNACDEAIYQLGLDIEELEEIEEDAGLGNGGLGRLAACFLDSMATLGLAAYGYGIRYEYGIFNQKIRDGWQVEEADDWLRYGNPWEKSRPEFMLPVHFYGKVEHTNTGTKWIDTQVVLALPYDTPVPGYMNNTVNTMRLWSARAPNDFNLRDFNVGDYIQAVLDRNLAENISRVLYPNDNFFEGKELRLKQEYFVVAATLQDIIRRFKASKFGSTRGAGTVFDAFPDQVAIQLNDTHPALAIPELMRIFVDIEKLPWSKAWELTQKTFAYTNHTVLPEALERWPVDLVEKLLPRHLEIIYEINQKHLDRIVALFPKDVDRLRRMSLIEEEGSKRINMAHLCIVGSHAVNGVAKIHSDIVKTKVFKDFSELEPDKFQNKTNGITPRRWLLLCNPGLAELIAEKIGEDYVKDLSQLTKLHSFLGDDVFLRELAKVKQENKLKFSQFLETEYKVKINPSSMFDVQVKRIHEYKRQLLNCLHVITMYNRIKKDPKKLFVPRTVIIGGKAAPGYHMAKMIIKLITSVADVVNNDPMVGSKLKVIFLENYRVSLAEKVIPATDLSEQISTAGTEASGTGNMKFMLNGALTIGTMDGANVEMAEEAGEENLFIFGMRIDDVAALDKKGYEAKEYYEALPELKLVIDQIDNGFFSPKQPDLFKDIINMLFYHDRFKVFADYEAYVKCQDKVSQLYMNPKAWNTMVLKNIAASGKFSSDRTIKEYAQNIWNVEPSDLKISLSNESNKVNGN
Assay: Human liver glycogen phosphorylase a enzymatic activity assay (coupled, fluorescent resorufin readout, with and without 10 mM glucose)
Assay type: biochemical
Details: human liver glycogen phosphorylase a enzymatic activity assay

Row | SMILES | pIC50
1 | Cc1cc(C)c(NC(=O)Nc2cc(-c3ccc(F)c(F)c3)ccc2C(=O)N[C@@H](C(=O)O)[C@H](C)OC(C)(C)C)c(C)c1 [Example 522, N-{[3′,4′-difluoro-3-({[(2,4,6-trimethylphenyl)amino]carbonyl}amino)-4-biphenylyl]carbonyl}-O-(1,1-dimethylethyl)-D-threonine] | 6.17
2 | COc1ccccc1-c1ccc(C(=O)N[C@H](C(=O)O)C2CCCCC2)c(NC(=O)Nc2c(C)cc(C)cc2C)c1 [Example 523, (2S)-cyclohexyl({[2′-(methyloxy)-3-({[(2,4,6-trimethylphenyl)amino]carbonyl}amino)-4-biphenylyl]carbonyl}amino)ethanoic acid] | 8.10
3 | COc1ccccc1-c1ccc(C(=O)N[C@H](C(=O)O)[C@@H](C)OC(C)(C)C)c(NC(=O)Nc2c(C)cc(C)cc2C)c1 [Example 524, O-(1,1-Dimethylethyl)-N-{[2′-(methyloxy)-3-({[(2,4,6-trimethylphenyl)amino]carbonyl}amino)-4-biphenylyl]carbonyl}-L-threonine] | 7.96
4 | Cc1cc(C)c(NC(=O)Nc2cc(-c3cc(F)cc(F)c3)ccc2C(=O)N[C@H](C(=O)O)[C@@H](C)OC(C)(C)C)c(C)c1 [Example 525, N-{[3′,5′-Difluoro-3-({[(2,4,6-trimethylphenyl)amino]carbonyl}amino)-4-biphenylyl]carbonyl}-O-(1,1-dimethylethyl)-L-threonine] | 8.15
5 | Cc1cc(C)c(NC(=O)Nc2cc(-c3cc(F)cc(F)c3)ccc2C(=O)N[C@H](C(=O)O)C2CCCCC2)c(C)c1 [Example 526, (2S)-Cyclohexyl({[3′,5′-difluoro-3-({[(2,4,6-trimethylphenyl)amino]carbonyl}amino)-4-biphenylyl]carbonyl}amino)ethanoic acid] | 8.30
6 | Cc1cc(C)c(NC(=O)Nc2cc(-c3ccc(F)cc3)ccc2C(=O)N[C@H](C(=O)O)[C@@H](C)OC(C)(C)C)c(C)c1 [Example 527, O-(1,1-Dimethylethyl)-N-{[4′-fluoro-3-({[(2,4,6-trimethylphenyl)amino]carbonyl}amino)-4-biphenylyl]carbonyl}-L-threonine] | 8.52
7 | Cc1cc(C)c(NC(=O)Nc2cc(-c3ccccc3)ccc2C(=O)N[C@H](C(=O)O)[C@@H](C)OC(C)(C)C)c(C)c1 [Example 528, O-(1,1-Dimethylethyl)-N-{[3-({[(2,4,6-trimethylphenyl)amino]carbonyl}amino)-4-biphenylyl]carbonyl}-L-threonine] | 8.52
8 | Cc1cc(C)c(NC(=O)Nc2cc(-c3ccccc3)ccc2C(=O)NC2(C(=O)O)CCCCCCC2)c(C)c1 [Example 529, 1-({[3-({[(2,4,6-Trimethylphenyl)amino]carbonyl}amino)-4-biphenylyl]carbonyl}amino)cyclooctanecarboxylic acid] | 8.70
9 | Cc1cc(C2CC2)cc(C)c1NC(=O)Nc1cc(-c2cccc(F)c2)ccc1C(=O)N[C@H](C(=O)O)[C@@H](C)OC(C)(C)C [Example 530, N-{[3-({[(4-Cyclopropyl-2,6-dimethylphenyl)amino]carbonyl}amino)-3′-fluoro-4-biphenylyl]carbonyl}-O-(1,1-dimethylethyl)-L-threonine] | 7.68
10 | Cc1cc(C2CC2)cc(C)c1NC(=O)Nc1c(C(=O)N[C@H](C(=O)O)C2CCCCC2)ccc2ccccc12 [Example 531] | 7.72
11 | COc1ccc(-c2ccc(C(=O)N[C@H](C(=O)O)[C@@H](C)OC(C)(C)C)c(NC(=O)Nc3c(C)cc(C4CC4)cc3C)c2)cc1 [Example 532, N-{[3-({[(4-cyclopropyl-2,6-dimethylphenyl)amino]carbonyl}amino)-4′-(methyloxy)-4-biphenylyl]carbonyl}-O-(1,1-dimethylethyl)-L-threonine] | 7.96
12 | Cc1cc(C)c(NC(=O)Nc2cc(-c3ccc(Cl)cc3)sc2C(=O)NC2(C(=O)O)CCCCC2)c(C)c1 [Example 533, 1-({[5-(4-Chlorophenyl)-3-({[(2,4,6-trimethylphenyl)amino]carbonyl}amino)-2-thienyl]carbonyl}amino)cyclohexanecarboxylic acid] | 8.52
13 | Cc1cc(C)c(NC(=O)Nc2cc(-c3ccc(F)c(F)c3)sc2C(=O)NC2(C(=O)O)CCCCC2)c(C)c1 [Example 534, 1-({[5-(3,4-difluorophenyl)-3-({[(2,4,6-trimethylphenyl)amino]carbonyl}amino)-2-thienyl]carbonyl}amino)cyclohexanecarboxylic acid] | 6.98
14 | Cc1cc(C)c(NC(=O)Nc2cc(-c3cc(F)c(F)c(F)c3)sc2C(=O)NC2(C(=O)O)CCCCC2)c(C)c1 [Example 535, 1-({[5-(3,4,5-trifluorophenyl)-3-({[(2,4,6-trimethylphenyl)amino]carbonyl}amino)-2-thienyl]carbonyl}amino) cyclohexanecarboxylic acid] | 6.69
